Measured values reported in US7803801B2, “Aminopyridine compounds having Syk inhibitory activity” (Japan Tobacco, Inc., priority 2005, dated 2010).
Like-named read-outs stand apart in the source and are kept apart here.

Key:
[1] = target: GST-Syk Full Protein (human) (Homo sapiens, UniProt P43405); assay: Syk kinase inhibition test (HTRF method); type: biochemical
Procedure, shortened: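 HTRF read-out: after EDTA termination and 1 h with XL665-streptavidin and Eu-anti-phosphotyrosine, the 665/620 nm ratio was measured. The reaction ran 30 min at 20–25 °C with final 6.4 nM human GST-Syk, 250 nM biotinylated peptide, 100 μM ATP, pH 7.0 HEPES buffer, 2% DMSO.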

[2] = test system: cultured human mast cells; assay: Degranulation inhibition test using cultured human mast cells (IgE cross-linking, β-Hexosaminidase release); type: cell-based; settings: Mast cell, cultured human mast cells, read-out: human degranulation ave. IC50
Procedure, shortened: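 Degranulation was triggered by anti-hIgE (10 μg/mL final, 30 min, 37 °C) after a 10-min compound pretreatment (DMSO 0.1%) of cord-blood CD34+-derived mast cells primed 5 days with IL-4 and IgE. β-Hexosaminidase in supernatant was measured with p-nitrophenyl-GlcNAc substrate (A405), expressed against water-lysed total; IC50 (M).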

[3] = HTRF, 100 μM ATP, 30 min room temperature, average, read-out: sykHTRF ave IC50
[4] = anti-hIgE stimulation, β-Hexosaminidase index, average
[5] = Tables 1-x, compounds A, read-out: sykHTRF ave IC50
[6] = Tables 2-x, thiophene compounds B, read-out: sykHTRK ave IC50
[7] = Tables 2-x, thiophene compounds B

Row | IC50 [1, 3] | IC50 [2, 4] | IC50 [1, 5] | IC50 ([2]; Tables 1-x, compounds A) | SMILES | also measured
1 | < 100 nM | 100 to 1000 nM | – | – | Cc1ccnc(Nc2cccc(-c3cnc(N4CCC(CCC(=O)O)CC4)s3)n2)c1 [Compound A-17, 3-(1-{5-[6-(4-methyl-pyridin-2-ylamino)pyridin-2-yl]thiazol-2-yl}piperidin-4-yl)propionic acid] | –
2 | – | – | < 100 nM | 100 to 1000 nM | CC(=O)N1CCN(c2ncc(-c3cccc(Nc4cc(Cl)ccn4)n3)s2)CC1 [Compound A-443, 1-(4-{5-[6-(4-chloropyridin-2-ylamino)pyridin-2-yl]thiazol-2-yl}piperazin-1-yl)ethanone] | –
3 | – | – | < 100 nM | 100 to 1000 nM | CNC(=O)COCC1CCCN(c2ncc(-c3cccc(Nc4cc(C)ccn4)n3)s2)C1 (centres unmarked) [Compound A-502, N-methyl-2-(1-{5-[6-(4-methylpyridin-2-ylamino)pyridin-2-yl]thiazol-2-yl}piperidin-3-ylmethoxy)acetamide] | –
4 | 100 to 1000 nM | 100 to 1000 nM | – | – | CC(=O)NCc1ncc(-c2cccc(Nc3cc(C)ccn3)n2)s1 [Compound A-143] | –
5 | – | – | – | – | Cc1ccnc(Nc2cccc(-c3sc([N+](=O)[O-])cc3C)n2)c1 [Compound B-21] | IC50 [1, 6]: > 1000 nM; IC50 [2, 7]: > 1000 nM
6 | < 100 nM | > 1000 nM | – | – | Cc1ccnc(Nc2cccc(-c3cnc([C@H]4CC[C@H](CN5C[C@@H](O)[C@@H](O)C5)CC4)s3)n2)c1 [Compound A-314, (3R,4S)-1-(trans-4-{5-[6-(4-methylpyridin-2-ylamino)pyridin-2-yl]thiazol-2-yl}cyclohexylmethyl)pyrrolidin-3,4-diol] | –
7 | 100 to 1000 nM | 100 to 1000 nM | – | – | Cc1ccnc(Nc2cccc(-c3cnc(CCNC(=O)CO)s3)n2)c1 [Compound A-257] | –
8 | 100 to 1000 nM | > 1000 nM | – | – | Cc1ccnc(Nc2cccc(-c3cnc([C@@H](N)Cc4ccc(NC(=O)OCc5ccccc5)cc4)s3)n2)c1 [Compound A-177] | –
9 | 100 to 1000 nM | > 1000 nM | – | – | Cc1ccnc(Nc2cccc(-c3cnc(C(=O)NC4CCCCC4O)s3)n2)c1 (centres unmarked) [Compound A-67] | –
10 | 100 to 1000 nM | 100 to 1000 nM | – | – | Cc1ccnc(Nc2cccc(-c3cnc([C@@H]4COC(=O)N4C)s3)n2)c1 [Compound A-11] | –
11 | – | – | – | – | CO/N=C(\C)c1ccc(-c2cccc(Nc3cc(N(C)C)ncn3)n2)s1 [Compound B-32] | IC50 [1, 6]: > 1000 nM; IC50 [2, 7]: > 1000 nM
12 | – | – | 100 to 1000 nM | > 1000 nM | Cc1ccnc(Nc2cccc(-c3cnc(N4CCC(C(=O)N5CCC(O)CC5)CC4)s3)n2)c1 [Compound A-420] | –
13 | – | – | < 100 nM | > 1000 nM | Cc1ccnc(Nc2cccc(-c3cnc(N(C)[C@H]4CN[C@H](C(=O)O)C4)s3)n2)c1 [Compound A-579, (2S,4R)-4-(N-methyl-N-{5-[6-(4-methylpyridin-2-ylamino)pyridin-2-yl]thiazol-2-yl}amino)pyrrolidine-2-carboxylic acid] | –
14 | 100 to 1000 nM | 100 to 1000 nM | – | – | CC(=O)N[C@@H](C)c1ncc(-c2cccc(Nc3cc(C4(C)OCCO4)ccn3)n2)s1 [Compound A-199] | –
15 | 100 to 1000 nM | 100 to 1000 nM | – | – | Cc1ccnc(Nc2cccc(-c3cnc([C@H]4CC[C@H](C(=O)N5CCN(C)CC5)CC4)s3)n2)c1 [Compound A-300] | –
16 | – | – | < 100 nM | > 1000 nM | Cc1ccnc(Nc2cccc(-c3sc(N4CCC(C(N)=O)CC4)nc3C)n2)c1 [Compound A-429, 1-{4-methyl-5-[6-(4-methylpyridin-2-ylamino)pyridin-2-yl]thiazol-2-yl}piperidine-4-carboxamide] | –
17 | – | – | < 100 nM | 100 to 1000 nM | Cc1ccnc(Nc2cccc(-c3cnc(N(C)CCNC(=O)CO)s3)n2)c1 [Compound A-509, 2-hydroxy-N-[2-(N′-methyl-{5-[6-(4-methylpyridin-2-ylamino)pyridin-2-yl]thiazol-2-yl}amino)ethyl]acetamide] | –
18 | – | – | < 100 nM | 100 to 1000 nM | Cc1ccnc(Nc2cccc(-c3cnc(N4CCCC(COCC(N)=O)C4)s3)n2)c1 (centres unmarked) [Compound A-499, 2-(1-{5-[6-(4-methylpyridin-2-ylamino)pyridin-2-yl]thiazol-2-yl}piperidin-3-ylmethoxy)acetamide] | –
19 | < 100 nM | > 1000 nM | – | – | Cc1ccnc(Nc2cccc(-c3cnc(C4CCC(=NO)CC4)s3)n2)c1 (centres unmarked) [Compound A-74, 4-{5-[6-(4-methylpyridin-2-ylamino)pyridin-2-yl]thiazol-2-yl}cyclohexanone oxime] | –
20 | – | – | < 100 nM | > 1000 nM | Cc1ccnc(Nc2cccc(-c3cnc(N4CCN(C(=O)CCC(=O)O)CC4)s3)n2)c1 [Compound A-551, 4-(4-{5-[6-(4-methylpyridin-2-ylamino)pyridin-2-yl]thiazol-2-yl}piperazin-1-yl)-4-oxobutyric acid] | –

Row | IC50 [1, 3] | IC50 [2, 4] | IC50 [1, 5] | IC50 ([2]; Tables 1-x, compounds A) | SMILES | also measured
21 | – | – | < 100 nM | > 1000 nM | CC(=O)N1CCC(N(CCNS(C)(=O)=O)c2ncc(-c3cccc(Nc4cc(C)ccn4)n3)s2)CC1 [Compound A-524, N-[2-(N′-(1-acetylpiperidin-4-yl)-N′-{5-[6-(4-methylpyridin-2-ylamino)pyridin-2-yl]thiazol-2-yl}amino)ethyl]methanesulfonamide] | –
22 | – | – | – | – | Cc1ccnc(Nc2cccc(-c3cc(C)c(C(=O)O)s3)n2)c1 [Compound B-37] | IC50 [1, 6]: 100 to 1000 nM; IC50 [2, 7]: > 1000 nM
23 | – | – | < 100 nM | 100 to 1000 nM | Cc1ccnc(Nc2cccc(-c3cnc(N(C)[C@H]4CC[C@H](C(=O)O)CC4)s3)n2)c1 [Compound A-592, trans-4-(N-methyl-N-{5-[6-(4-methylpyridin-2-ylamino)pyridin-2-yl]thiazol-2-yl}amino)cyclohexanecarboxylic acid] | –
24 | – | – | < 100 nM | 100 to 1000 nM | Cc1ccnc(Nc2cccc(-c3cnc(N4CCCC(CO)C4)s3)n2)c1 (centres unmarked) [Compound A-498, (1-{5-[6-(4-methylpyridin-2-ylamino)pyridin-2-yl]thiazol-2-yl}piperidin-3-yl)methanol] | –
25 | < 100 nM | 100 to 1000 nM | – | – | O=C(O)[C@H]1CC[C@H](c2ncc(-c3cccc(Nc4cc5ccccc5cn4)n3)s2)CC1 [Compound A-215, trans-4-{5-[6-(isoquinolin-3-ylamino)pyridin-2-yl]thiazol-2-yl}cyclohexanecarboxylic acid] | –
26 | – | – | < 100 nM | 100 to 1000 nM | Cc1ccnc(Nc2cccc(-c3cnc(N4CC[C@@H](NS(C)(=O)=O)C4)s3)n2)c1 [Compound A-489, N—((R)-1-{5-[6-(4-methylpyridin-2-ylamino)pyridin-2-yl]thiazol-2-yl}pyrrolidin-3-yl)methanesulfonamide] | –
27 | – | – | < 100 nM | > 1000 nM | Cc1ccnc(Nc2cccc(-c3cnc(CCC4CCC(C(=O)O)CC4)s3)n2)c1 (centres unmarked) [Compound A-612, 4-(2-{5-[6-(4-methylpyridin-2-ylamino)pyridin-2-yl]thiazol-2-yl}ethyl)cyclohexanecarboxylic acid] | –
28 | – | – | – | – | Cc1ccnc(Nc2cccc(-c3ccc(C(=O)N4CCC(O)CC4)s3)n2)c1 [Compound B-79] | IC50 [1, 6]: 100 to 1000 nM; IC50 [2, 7]: 100 to 1000 nM
29 | < 100 nM | 100 to 1000 nM | – | – | CC(=O)N[C@H](c1ccc(O)cc1)c1ncc(-c2cccc(Nc3cc(C)ccn3)n2)s1 [Compound A-161, N—((R)-(4-hydroxyphenyl)-{5-[6-(4-methylpyridin-2-ylamino)pyridin-2-yl]thiazol-2-yl}methyl)acetamide] | –
30 | 100 to 1000 nM | 100 to 1000 nM | – | – | COC1CCN(C(=O)[C@H]2CC[C@H](c3ncc(-c4cccc(Nc5cc(C)ccn5)n4)s3)CC2)CC1 [Compound A-280] | –
31 | – | – | – | – | CC(=O)c1ccc(-c2cccc(Nc3cc(C)ccn3)n2)s1 [Compound B-1, 1-{5-[6-(4-methylpyridin-2-ylamino)pyridin-2-yl]thiophen-2-yl}ethanone] | IC50 [1, 6]: < 100 nM; IC50 [2, 7]: > 1000 nM
32 | 100 to 1000 nM | 100 to 1000 nM | – | – | Cc1ccnc(Nc2cccc(-c3cnc(COC(=O)NCC4(O)CCCCC4)s3)n2)c1 [Compound A-195] | –
33 | < 100 nM | 100 to 1000 nM | – | – | CNC(=O)[C@H]1CC[C@H](c2ncc(-c3cccc(Nc4cc(C)ccn4)n3)s2)CC1 [Compound A-336, N-methyl-trans-4-{5-[6-(4-methylpyridin-2-ylamino)pyridin-2-yl]thiazol-2-yl}cyclohexanecarboxamide] | –
34 | 100 to 1000 nM | > 1000 nM | – | – | Cc1ccnc(Nc2cccc(-c3cnc(CN4CCC(C(=O)O)CC4)s3)n2)c1 [Compound A-168] | –
35 | – | – | – | – | C/C(=N\OCCO)c1ccc(-c2cccc(Nc3cc(C)ccn3)n2)s1 [Compound B-38, 1-{5-[6-(4-methylpyridin-2-ylamino)pyridin-2-yl]thiophen-2-yl}ethanone O-(2-hydroxyethyl)oxime] | IC50 [1, 6]: < 100 nM; IC50 [2, 7]: 100 to 1000 nM
36 | 100 to 1000 nM | > 1000 nM | – | – | COC(=O)CCN(Cc1ncc(-c2cccc(Nc3cc(C)ccn3)n2)s1)C(C)=O [Compound A-164] | –
37 | – | – | – | – | Cc1ccnc(Nc2cccc(-c3ccc(C(N)=O)s3)n2)c1 [Compound B-23, 5-[6-(4-methylpyridin-2-ylamino)pyridin-2-yl]thiophene-2-carboxamide] | IC50 [1, 6]: < 100 nM; IC50 [2, 7]: > 1000 nM
38 | 100 to 1000 nM | 100 to 1000 nM | – | – | CC(=O)N[C@@H](CO)c1ncc(-c2cccc(Nc3cc(C)ccn3)n2)s1 [Compound A-59] | –
39 | 100 to 1000 nM | 100 to 1000 nM | – | – | Cc1ccnc(Nc2cccc(-c3cnc(C4CCN(S(C)(=O)=O)CC4)s3)n2)c1 [Compound A-353] | –
40 | 100 to 1000 nM | > 1000 nM | – | – | Cc1ccnc(Nc2cccc(-c3cnc(C(=O)NC(CO)CO)s3)n2)c1 [Compound A-72] | –
